We go through 26 compounds from patent publication US10722514B2 (FLX Bio, Inc., priority 2017, dated 2020).

The term IC50 denotes the concentration that inhibits the measured activity by half.

Where a name gives a salt, the structure may show the parent alone. Bounds are passed on as bounds.

One experiment deals with T1, recombinant full-length USP7 (Homo sapiens, UniProt Q93009).
T1 construct: A 25 μl reaction volume containing recombinant full-length USP7 (62 pM)
T1 sequence (Q93009 whole entry): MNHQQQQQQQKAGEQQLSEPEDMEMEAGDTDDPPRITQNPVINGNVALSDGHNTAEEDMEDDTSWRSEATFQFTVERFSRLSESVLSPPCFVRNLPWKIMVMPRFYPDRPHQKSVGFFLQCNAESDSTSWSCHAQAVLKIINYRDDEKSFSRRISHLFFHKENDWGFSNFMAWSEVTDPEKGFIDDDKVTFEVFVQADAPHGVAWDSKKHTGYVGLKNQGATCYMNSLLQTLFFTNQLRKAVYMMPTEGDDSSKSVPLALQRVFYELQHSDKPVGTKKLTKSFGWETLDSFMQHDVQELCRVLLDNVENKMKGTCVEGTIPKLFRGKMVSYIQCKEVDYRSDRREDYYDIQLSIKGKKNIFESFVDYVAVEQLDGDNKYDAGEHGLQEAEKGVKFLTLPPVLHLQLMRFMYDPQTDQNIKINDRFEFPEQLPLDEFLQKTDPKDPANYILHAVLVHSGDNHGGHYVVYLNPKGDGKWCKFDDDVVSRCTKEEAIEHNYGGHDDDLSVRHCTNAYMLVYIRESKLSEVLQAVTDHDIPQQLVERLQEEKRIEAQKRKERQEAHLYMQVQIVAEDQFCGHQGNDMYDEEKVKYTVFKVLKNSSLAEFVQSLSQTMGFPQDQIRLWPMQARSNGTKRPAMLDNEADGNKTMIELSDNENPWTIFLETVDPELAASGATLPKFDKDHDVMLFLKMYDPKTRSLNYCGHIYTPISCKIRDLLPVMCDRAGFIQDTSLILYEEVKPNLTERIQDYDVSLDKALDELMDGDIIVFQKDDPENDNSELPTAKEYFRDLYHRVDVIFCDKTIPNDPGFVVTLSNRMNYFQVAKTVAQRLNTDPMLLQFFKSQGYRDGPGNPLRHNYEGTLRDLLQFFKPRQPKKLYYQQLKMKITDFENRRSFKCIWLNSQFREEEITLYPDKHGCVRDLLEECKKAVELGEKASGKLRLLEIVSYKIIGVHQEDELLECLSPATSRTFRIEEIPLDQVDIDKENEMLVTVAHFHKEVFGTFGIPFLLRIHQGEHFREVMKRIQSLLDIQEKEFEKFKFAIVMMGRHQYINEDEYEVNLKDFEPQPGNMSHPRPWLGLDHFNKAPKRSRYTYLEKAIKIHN
Description: USP7-mediated ubiquitin-rhodamine cleavage assay. The experiment is classed as biochemical. Conditions: recombinant full-length USP7 62 pM; ubiquitin-rhodamine 100 nM; 30-minute incubation with compound, 1 hour reaction at room temperature; read-out: Potency: USP7 IC50. The procedure, abridged:
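Full-length recombinant USP7 (62 pM) in 20 mM HEPES pH 7.3, 150 mM NaCl, 1 mM TCEP, 125 μg/ml BSA, 1% DMSO, preincubated with compound 30 min at RT. Ubiquitin-rhodamine (100 nM final) cleaved 1 h at RT in the dark, stopped with acetic acid; rhodamine fluorescence read, IC50 by 4-parameter nonlinear fit.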
Regarding `Cc1cc(Cl)cc(-c2ncnc3cc(CN4C(=O)CC(C)(C)C4=O)sc23)c1O[C@@H]1CNC[C@@H]1F` [Example 380, 1-[[4-[5-chloro-2-[(3R,4S)-4-fluoropyrrolidin-3-yl]oxy-3-methyl-phenyl]thieno[3,2-d]pyrimidin-6-yl]methyl]-3,3-dimethyl-pyrrolidine-2,5-dione; 2,2,2-trifluoroacetic acid], the IC50 was less than 1 µM.
The same measure, in the same setting: in the case of `Cc1cc(Cl)cc(-c2ccnc3cc(CN4C(=O)C5C(C4=O)C5(C)C)sc23)c1O[C@@H]1CCNC[C@@H]1F` (stereo partly drawn) [Example 391, 3-[[7-[5-chloro-2-[[(3S,4R)-3-fluoro-4-piperidyl]oxy]-3-methyl-phenyl]thieno[3,2-b]pyridin-2-yl]methyl]-6,6-dimethyl-3-azabicyclo[3.1.0]hexane-2,4-dione; 2,2,2-trifluoroacetic acid] it was less than 1 µM.
Take `Cc1cc(Cl)cc(-c2ccnc3cc(CN4C(=O)C5C(C4=O)C5(C)C)sc23)c1OC1CC(N)C1` (centres unmarked) [Example 357, 3-[[7-[2-(3-aminocyclobutyoxy)-5-chloro-3-methyl-phenyl]thieno[3,2-b]pyridin-2-yl]methyl]-6,6-dimethyl-3-azabicyclo[3.1.0]hexane-2,4-dione; 2,2,2-trifluoroacetic acid]: the IC50 is less than 1 µM.
Regarding `Cc1cc(Cl)cc(-c2ccnc3cc(CN4C(=O)CCCC4=O)sc23)c1O[C@H]1CCCNC1` [Example 237, (S)-1-((7-(5-Chloro-3-methyl-2-(piperidin-3-yloxy)phenyl)thieno[3,2-b]pyridin-2-yl)methyl)piperidine-2,6-dione], the IC50 is less than 1 µM.
In the case of `Cc1cc(Cl)cc(-c2ccnc3cc(CN4C(=O)C5C(C4=O)C5(C)C)sc23)c1O[C@@H]1CCNC[C@H]1F` (stereo partly drawn) [Example 294, 3-[[7-[5-chloro-2-[[(3R,4R)-3-fluoro-4-piperidyl]oxy]-3-methyl-phenyl]thieno[3,2-b]pyridin-2-yl]methyl]-6,6-dimethyl-3-azabicyclo[3.1.0]hexane-2,4-dione; 2,2,2-trifluoroacetic acid], the IC50 is less than 1 µM.
Still for that read-out and setting: in the case of `Cc1cc(Cl)cc(-c2ccnc3cc([C@H](C)N4C(=O)CCC4=O)sc23)c1O[C@@H]1CCNC[C@H]1F` [Example 289, 1-[(1S)-1-[7-[5-chloro-2-[[(3R,4R)-3-fluoro-4-piperidyl]oxy]-3-methyl-phenyl]thieno[3,2-b]pyridin-2-yl]ethyl]pyrrolidine-2,5-dione; 2,2,2-trifluoroacetic acid] it was less than 1 µM; in that of `Cc1cc(Cl)cc(-c2ccnc3cc(CO)sc23)c1OCC1CCCNC1` (centres unmarked) [Example 189, (7-(5-Chloro-3-methyl-2-(piperidin-3-ylmethoxy)phenyl)thieno[3,2-b]pyridin-2-yl)methanol], 10 to 30 µM; in that of `Cc1cc(C(F)(F)F)cc(-c2ccnc3cc(CN4C(=O)CCC4=O)sc23)c1OC1CCNCC1` [Example 253, 1-((7-(3-Methyl-2-(piperidin-4-yloxy)-5-(trifluoromethyl)phenyl)thieno[3,2-b]pyridin-2-yl)methyl)pyrrolidine-2,5-dione], less than 1 µM.
The same measure, in the same setting: under `Cc1cc(Cl)cc(-c2ccnc3cc(CN4C(=O)CCC4=O)sc23)c1O[C@H]1CC[C@H](N)C1` [Example 127, 1-((7-(2-(((1S,3S)-3-Aminocyclopentyl)oxy)-5-chloro-3-methylphenyl)thieno[3,2-b]pyridin-2-yl)methyl)pyrrolidine-2,5-dione] stands less than 1 µM.
Still for that read-out and setting: in the case of `Cc1cc(Cl)cc(-c2ccnc3ccsc23)c1OC1CCCCNC1` (centres unmarked) [Example 264, 7-(2-(Azepan-3-yloxy)-5-chloro-3-methylphenyl)thieno[3,2-b]pyridine] it was 10 to 30 µM; in that of `Cc1cc(Cl)cc(-c2ccnc3cc(CN4C(=O)NC(C)(C)C4=O)sc23)c1O[C@@H]1CNC[C@@H]1F` [Example 154, 3-((7-(5-Chloro-2-(((3R,4S)-4-fluoropyrrolidin-3-yl)oxy)-3-methylphenyl)thieno[3,2-b]pyridin-2-yl)methyl)-5,5-dimethylimidazolidine-2,4-dione], less than 1 µM; in that of `Cc1cc(Cl)cc(-c2ccnc3cc(CN4C(=O)CCC4=O)sc23)c1O[C@@H]1CN[C@@H](C(F)F)C1` [Example 125, 1-((7-(5-Chloro-2-(((3S,5R)-5-(difluoromethyl)pyrrolidin-3-yl)oxy)-3-methylphenyl)thieno[3,2-b]pyridin-2-yl)methyl)pyrrolidine-2,5-dione], 1 to 10 µM.
In the case of `Cc1cc(Cl)cc(-c2ncnc3cc(CN4C(=O)CCC4=O)sc23)c1O[C@H]1CC[C@H](C)NC1` [Example 338, 1-[[4-[5-chloro-3-methyl-2-[[(3S,6S)-6-methyl-3-piperidyl]oxy]phenyl]thieno[3,2-d]pyrimidin-6-yl]methyl]pyrrolidine-2,5-dione dihydrochloride], the half-inhibitory concentration (IC50) is less than 1 µM.
On the same count and under the same terms, in the case of `Cc1cc(Cl)cc(-c2ccnc3cc(CN4C(=O)CCC4=O)sc23)c1O[C@@H]1CNC(C(=O)N(C)C)C1` (stereo partly drawn) [Example 64, (4S)-4-(4-Chloro-2-(2-((2,5-dioxopyrrolidin-1-yl)methyl)thieno[3,2-b]pyridin-7-yl)-6-methylphenoxy)-N,N-dimethylpyrrolidine-2-carboxamide] it was 1 to 10 µM; in that of `Cc1cc(Cl)cc(-c2ncnc3cc(Cn4c(C(F)(F)F)cccc4=O)sc23)c1O[C@@H]1CNC[C@@H]1F` [Example 148, 1-((4-(5-Chloro-2-(((3R,4S)-4-fluoropyrrolidin-3-yl)oxy)-3-methylphenyl)thieno[3,2-d]pyrimidin-6-yl)methyl)-6-(trifluoromethyl)pyridin-2(1H)-one], 10 to 30 µM; in that of `Cc1cc2nccc(-c3cc(C#N)cc(C)c3O[C@H]3CCCNC3)c2s1` [Example 182, (S)-3-Methyl-5-(2-methylthieno[3,2-b]pyridin-7-yl)-4-(piperidin-3-yloxy)benzonitrile], 10 to 30 µM.

Still in this experiment, the particulars now being: recombinant full-length USP7 62 pM; ubiquitin-rhodamine 100 nM; 30-minute incubation, 1 hour reaction at room temperature; read-out: Potency (USP7 IC50).
`Cc1cc(Cl)cc(-c2ccnc3cc(Cn4c(=O)ccn(CC(F)(F)F)c4=O)sc23)c1OC(C)C` [Example 702, 3-[[7-(5-chloro-2-isopropoxy-3-methyl-phenyl)thieno[3,2-b]pyridin-2-yl]methyl]-1-(2,2,2-trifluoroethyl)pyrimidine-2,4-dione]: the IC50 was 1 to 10 µM.
Turning to `COC1CCN(C2CC(Oc3c(C)cc(Cl)cc3-c3ccnc4cc(Cn5c(=O)ccn(CC(F)(F)F)c5=O)sc34)C2)C1` (centres unmarked) [Example 684, 3-[[7-[5-chloro-2-[3-(3-methoxypyrrolidin-1-yl)cyclobutoxy]-3-methyl-phenyl]thieno[3,2-b]pyridin-2-yl]methyl]-1-(2,2,2-trifluoroethyl)pyrimidine-2,4-dione; 2,2,2-trifluoroacetic acid], the IC50 is less than 1 µM.
The same measure, in the same setting: in the case of `Cc1cc(Cl)cc(-c2ccnc3cc(Cn4c(=O)ccn(CC(F)(F)F)c4=O)sc23)c1OC1CC(N2CCC(O)C2)C1` (centres unmarked) [Example 672, 3-[[7-[5-chloro-2-[3-(3-hydroxypyrrolidin-1-yl)cyclobutoxy]-3-methyl-phenyl]thieno[3,2-b]pyridin-2-yl]methyl]-1-(2,2,2-trifluoroethyl)pyrimidine-2,4-dione; 2,2,2-trifluoroacetic acid] it was less than 1 µM.

The experiment is the same for the next values; noted with them: recombinant full-length USP7 62 pM; ubiquitin-rhodamine 100 nM; 30-minute pre-incubation, 1 hour reaction at room temperature; read-out: Potency (USP7 IC50).
On to `Cc1cc(Cl)cc(-c2ccnc3cc(Cn4c(=O)ccn(C)c4=O)sc23)c1O[C@H]1CCCN(C)CC1` [Example 492, 3-[[7-[5-chloro-3-methyl-2-[(4S)-1-methylazepan-4-yl]oxy-phenyl]thieno[3,2-b]pyridin-2-yl]methyl]-1-methyl-pyrimidine-2,4-dione], for which the 50% inhibitory concentration (IC50) is less than 1 µM.
Still for that read-out and setting: in the case of `Cc1cc(Cl)cc(-c2ccncc2CCCN2C(=O)CCC2=O)c1OC1CNC[C@@H]1F` (stereo partly drawn) [Example 409, 1-[3-[4-[5-chloro-2-[(4S)-4-fluoropyrrolidin-3-yl]oxy-3-methyl-phenyl]-3-pyridyl]propyl]pyrrolidine-2,5-dione; 2,2,2-trifluoroacetic acid] it was 1 to 10 µM.
Same read-out and setting: under `Cc1cc(Cl)cc(-c2ccnc3cc(Cn4c(=O)ccn(CC(F)(F)F)c4=O)sc23)c1O[C@H]1CNC[C@@H]1C` [Example 627, 3-[[7-[5-chloro-3-methyl-2-[(3R,4S)-4-methylpyrrolidin-3-yl]oxy-phenyl]thieno[3,2-b]pyridin-2-yl]methyl]-1-(2,2,2-trifluoroethyl)pyrimidine-2,4-dione] stands less than 1 µM; under `Cc1cc(Cl)cc(-c2ccnc3cc(Cn4c(=O)ccn(C)c4=O)sc23)c1O[C@H]1CCN(C)C(C)(C)C1` [Example 490], less than 1 µM; under `Cc1cc(Cl)cc(-c2ccnc3cc(Cn4c(=O)ccn(CC(F)(F)F)c4=O)sc23)c1OC1CC2CC1CN2` (centres unmarked) [Example 577, 3-[[7-[2-(2-azabicyclo[2.2.1]heptan-5-yloxy)-5-chloro-3-methyl-phenyl]thieno[3,2-b]pyridin-2-yl]methyl]-1-(2,2,2-trifluoroethyl)pyrimidine-2,4-dione; 2,2,2-trifluoroacetic acid], less than 1 µM.
Same read-out and setting: in the case of `Cc1cc(Cl)cc(-c2ccnc3cc(Cn4c(=O)ccn(CC(F)(F)F)c4=O)sc23)c1OC1CC2CNC1C2` (centres unmarked) [Example 540, 3-[[7-[2-(3-azabicyclo[2.2.1]heptan-5-yloxy)-5-chloro-3-methyl-phenyl]thieno[3,2-b]pyridin-2-yl]methyl]-1-(2,2,2-trifluoroethyl)pyrimidine-2,4-dione] it was less than 1 µM; in that of `Cc1cc(Cl)cc(-c2ccnc3cc(CN4C(=O)C[C@H](O)C4=O)sc23)c1OC1CCNCC1` [Example 417, (3S)-1-[[7-[5-chloro-3-methyl-2-(4-piperidyloxy)phenyl]thieno[3,2-b]pyridin-2-yl]methyl]-3-hydroxy-pyrrolidine-2,5-dione dihydrochloride], less than 1 µM.
